In patent publication US10538555B2, “Macrocyclic inhibitors of the PD-1/PD-L1 and CD80(B7-1)/PD-L1 protein/protein interactions” (BRISTOL-MYERS SQUIBB COMPANY, priority 2014, dated 2020):
Where a SMILES comes first, the peptide text is derived from it. Bridges are numbered along the chain shown (N, C = ends). [ ]: non-standard residue; d: D form. ξ: configuration not given here. Trp(1-CH2COOH) = N[C@@H](Cc1cn(CC(=O)O)c2ccccc12)C(=O)O; Trp(βS-Me) = C[C@@H](c1c[nH]c2ccccc12)[C@H](N)C(=O)O; Phe(3,4,5-F3) = N[C@@H](Cc1cc(F)c(F)c(F)c1)C(=O)O; NMePhe(4-F) = CN[C@@H](Cc1ccc(F)cc1)C(=O)O; NMeW = CN[C@@H](Cc1c[nH]c2ccccc12)C(=O)O; Phe(4-CN) = N#Cc1ccc(C[C@H](N)C(=O)O)cc1; Hyp = O=C(O)[C@@H]1C[C@@H](O)CN1; NMeF = CN[C@@H](Cc1ccccc1)C(=O)O; NMeNle = CCCC[C@H](NC)C(=O)O; dPip = O=C(O)[C@H]1CCCCN1; NMeA = CN[C@@H](C)C(=O)O; Dab = NCC[C@H](N)C(=O)O; Abu = CC[C@H](N)C(=O)O; Dap = NC[C@H](N)C(=O)O; ξP = O=C(O)C1CCCN1; Sar = CNCC(=O)O

Target: T1, Human PD-L1/PD-1 (Homo sapiens, UniProt Q9NZQ7)
T1 construct: TVMV protease cleavage site (C); made in house; host or cells: HEK293T cells
T1 sequence (Q9NZQ7 with tags, fused parts or gaps): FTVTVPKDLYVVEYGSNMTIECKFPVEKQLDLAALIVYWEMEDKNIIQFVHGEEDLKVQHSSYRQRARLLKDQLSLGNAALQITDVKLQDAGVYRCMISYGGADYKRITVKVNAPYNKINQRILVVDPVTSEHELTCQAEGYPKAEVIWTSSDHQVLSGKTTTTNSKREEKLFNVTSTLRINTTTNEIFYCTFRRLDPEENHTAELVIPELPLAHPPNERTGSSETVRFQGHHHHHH
Assay: HTRF Human PD-L1/PD-1 binding assay (PD-1-Ig/PD-L1-His)
Settings: PD-L1-His 10 nM, PD-1-Ig 20 nM; class symbol; read-out: HTRF Human PD-L1/PD-1 Binding Assay IC50 Range
Outline: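 Competition of macrocyclic peptides for PD-1/PD-L1 binding measured by HTRF in dPBS containing 0.1% BSA and 0.05% Tween-20. Compound and PD-L1-His (10 nM final) incubated 15 min before PD-1-Ig (20 nM final) and a further 15 min.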

Structure (SMILES) | IC50
CCCC[C@H]1C(=O)N(C)CC(=O)N[C@@H](CO)C(=O)N[C@@H](CC)C(=O)N(C)[C@@H](Cc2ccccc2)C(=O)N[C@@H](Cc2ccc(O)cc2)C(=O)N2CCCC[C@@H]2C(=O)N[C@@H](Cc2c[nH]c3ccccc23)C(=O)N[C@@H](Cc2ccc(O)cc2)C(=O)N[C@@H](CC(C)C)C(=O)N[C@H](C(=O)NCC(N)=O)CSCC(=O)N[C@@H](Cc2ccccc2)C(=O)N(C)[C@@H](Cc2ccccc2)C(=O)N1C [Example 10061] ({CH2CO}-F[NMeF][NMeNle][Sar]S[Abu][NMeF]Y[dPip]WYLCG-NH2; thioether N-13) | 10 to 99.9 nM
CCCC[C@H]1C(=O)N2CCC[C@@H]2C(=O)N[C@@H](CCN)C(=O)N[C@@H](C(C)C)C(=O)N(C)[C@@H](Cc2ccccc2)C(=O)N[C@@H](CC(=O)O)C(=O)N2CCCC[C@@H]2C(=O)N[C@@H](Cc2c[nH]c3ccccc23)C(=O)N[C@@H](Cc2ccc(O)cc2)C(=O)N[C@@H](CC(C)C)C(=O)N[C@H](C(=O)NCC(N)=O)CSCC(=O)N[C@@H](Cc2cc(F)c(F)c(F)c2)C(=O)N(C)[C@@H](Cc2ccc(F)cc2)C(=O)N1C [Example 10581] ({CH2CO}-[Phe(3,4,5-F3)][NMePhe(4-F)][NMeNle][dP][Dab]V[NMeF]D[dPip]WYLCG-NH2; thioether N-13) | 10 to 99.9 nM
CCCC[C@H]1C(=O)N(C)[C@@H](CCCC)C(=O)N[C@@H](CC(=O)O)C(=O)N[C@H](C(=O)NCC(N)=O)CSCC(=O)N[C@@H](Cc2ccc(O)cc2)C(=O)N(C)[C@@H](C)C(=O)N[C@@H](CC(=O)O)C(=O)N2CCC[C@H]2C(=O)N[C@@H](Cc2cnc[nH]2)C(=O)N[C@@H](CCCCN)C(=O)N2C[C@H](O)C[C@H]2C(=O)N[C@@H](Cc2c[nH]c3ccccc23)C(=O)N[C@@H](CCCCN)C(=O)N[C@@H](Cc2cn(CC(=O)O)c3ccccc23)C(=O)N1C [Example 6209] ({CH2CO}-Y[NMeA]DPHK[Hyp]WK[Trp(1-CH2COOH)][NMeNle][NMeNle]DCG-NH2; thioether N-14) | 1 to 9.9 nM

Other lines, results leading:

IC50 | Structure (SMILES)
1 to 9.9 nM | CCCC[C@H]1C(=O)N(C)[C@@H](CCCC)C(=O)N[C@@H](C)C(=O)N[C@H](C(=O)NCC(N)=O)CSCC(=O)N[C@@H](Cc2ccc(O)cc2)C(=O)N(C)[C@@H](C)C(=O)N[C@@H](CC(=O)O)C(=O)N2CCC[C@H]2C(=O)N[C@@H](Cc2c[nH]cn2)C(=O)N[C@@H](CCC(N)=O)C(=O)N2C[C@H](O)C[C@H]2C(=O)N[C@@H]([C@@H](C)c2c[nH]c3ccccc23)C(=O)N[C@@H](CO)C(=O)N[C@@H](Cc2c[nH]c3ccccc23)C(=O)N1C [Example 10553] ({CH2CO}-Y[NMeA]DPHQ[Hyp][Trp(βS-Me)]SW[NMeNle][NMeNle]ACG-NH2; thioether N-14)
10 to 99.9 nM | CCCC[C@H]1C(=O)N(C)[C@@H](CCCC)C(=O)N[C@@H](CCCNC(=N)N)C(=O)N[C@H](C(=O)NCC(N)=O)CSCC(=O)N[C@@H](Cc2ccc(C#N)cc2)C(=O)N(C)[C@@H](C)C(=O)N[C@@H](CC(N)=O)C(=O)N2CCC[C@H]2C(=O)N[C@@H](Cc2cnc[nH]2)C(=O)N[C@@H](CCC(=O)O)C(=O)N2C[C@H](O)C[C@H]2C(=O)N[C@@H](Cc2c[nH]c3ccccc23)C(=O)N[C@@H](CO)C(=O)N[C@@H](Cc2c[nH]c3ccccc23)C(=O)N1C [Example 7078] ({CH2CO}-[Phe(4-CN)][NMeA]NPHE[Hyp]WSW[NMeNle][NMeNle]RCG-NH2; thioether N-14)
10 to 99.9 nM | CCCC[C@H]1C(=O)N[C@@H](CC(C)C)C(=O)N[C@H](C(=O)NCC(N)=O)CSCC(=O)N[C@@H](Cc2ccc(O)cc2)C(=O)N(C)[C@@H](C)C(=O)N[C@@H](CC(N)=O)C(=O)N2CCCC2C(=O)N[C@@H](CN)C(=O)N[C@@H](CC(C)C)C(=O)N2C[C@H](O)C[C@H]2C(=O)N[C@@H](Cc2c[nH]c3ccccc23)C(=O)N[C@@H](CCN)C(=O)N(C)[C@@H](Cc2c[nH]c3ccccc23)C(=O)N(C)[C@@H](CCCC)C(=O)N1C (stereo partly drawn) [Example 5265] ({CH2CO}-Y[NMeA]N[ξP][Dap]L[Hyp]W[Dab][NMeW][NMeNle][NMeNle]LCG-NH2; thioether N-14)
